# Source: PubChem BioAssay AID1597 (NINDS Approved Drug Screening Program, 2009)
# Results filed as inconclusive are left out.
# Test system: Drosophila SCA1 polyglutamine model, toxicity suppression
# Experiment: Reduction of SCA1 polyglutamine toxicity, EC50 from dose response in whole drosophila (AID 1597)
row,SMILES,EC50
1,Cc1cc(C(C)(C)C)cc(C)c1CC1=NCCN1,250 nM
2,N#C/C(=C\c1ccc(O)cc1)C(=O)O,50 nM
3,CN1CCOC(c2ccccc2)c2ccccc2C1 (centres undefined),50 nM
4,C[C@@H]1O[C@@H](O[C@H]2[C@H](Oc3cc(O)c4c(c3)O[C@H](c3ccc(O)cc3)CC4=O)O[C@H](CO)[C@@H](O)[C@@H]2O)[C@H](O)[C@H](O)[C@H]1O,5000 nM
5,C[N+](C)(C)CC(=O)[O-],3000 nM
6,C=C1C2CC[C@H]3[C@]4(C)C[C@H](OC5OC(CO)C(OS(=O)(=O)O)C(OS(=O)(=O)O)C5OC(=O)CC(C)C)C[C@@H](C(=O)O)[C@H]4CC[C@]3(C2)[C@H]1O (some centres undefined),225 nM
7,CC(=O)OCC(=O)[C@H]1CCC2C3CCC4=CC(=O)CC[C@]4(C)C3CC[C@@]21C (some centres undefined),3000 nM
8,NS(=O)(=O)c1cc(C2(O)NC(=O)c3ccccc32)ccc1Cl (centres undefined),5000 nM
9,CC(N)CCCC(C)(C)O (centres undefined),50 nM
10,NC(Cc1cc(I)c(Oc2ccc(O)c(I)c2)c(I)c1)C(=O)O (centres undefined),5000 nM
11,OCC(S)CS (centres undefined),300 nM
12,CCCCCCCCCCCCCCCC(=O)OC/C=C(C)/C=C/C=C(C)/C=C/C1=C(C)CCCC1(C)C,275 nM
13,C[C@@H]1CC2C3CCC4=CC(=O)C=C[C@]4(C)[C@@]3(F)[C@@H](O)C[C@]2(C)[C@@]1(O)C(=O)COP(=O)(O)O (some centres undefined),750 nM
14,C[N+](C)(C)CCOC(N)=O,3000 nM
